Where two headings read alike, the source gives them in different places.
How the values were obtained:
[1] = target: T1, 5-Lipoxygenase (Rattus norvegicus, UniProt P12527); assay: Assay of 5-lipoxygenase activity in RBL-1 cell extract (high speed supernatant); format: biochemical; conditions: 25 μM arachidonic acid, 5 min at 37° C.
T1 construct: The broken cell extract was then centrifuged at 10,000×g for 20 minutes (min) and the supernatant centrifuge at 100,000×g for 60 min; host or cells: RBL-1 cells, high speed (100,000×g) supernatant
T1 sequence (P12527 1-673): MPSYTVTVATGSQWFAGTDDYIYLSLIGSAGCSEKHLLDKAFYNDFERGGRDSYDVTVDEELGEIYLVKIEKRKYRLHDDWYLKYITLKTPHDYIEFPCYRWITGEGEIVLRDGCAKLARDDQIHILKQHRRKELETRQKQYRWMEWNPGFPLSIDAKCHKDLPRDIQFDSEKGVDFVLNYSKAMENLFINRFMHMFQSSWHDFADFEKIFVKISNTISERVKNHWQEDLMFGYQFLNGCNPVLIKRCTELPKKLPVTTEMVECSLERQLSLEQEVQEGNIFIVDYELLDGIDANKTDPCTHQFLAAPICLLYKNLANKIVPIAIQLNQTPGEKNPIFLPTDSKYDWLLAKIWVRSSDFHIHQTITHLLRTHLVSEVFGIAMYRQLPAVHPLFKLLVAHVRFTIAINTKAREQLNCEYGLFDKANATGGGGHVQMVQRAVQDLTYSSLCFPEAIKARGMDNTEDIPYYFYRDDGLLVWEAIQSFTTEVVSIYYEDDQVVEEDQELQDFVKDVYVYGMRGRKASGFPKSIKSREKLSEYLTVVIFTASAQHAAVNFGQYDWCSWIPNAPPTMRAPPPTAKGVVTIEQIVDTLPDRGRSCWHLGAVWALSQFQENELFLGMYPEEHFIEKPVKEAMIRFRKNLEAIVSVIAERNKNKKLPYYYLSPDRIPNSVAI
Protocol: For in vitro experiments, compounds were dissolved at appropriate concentrations in ethanol (final concentration 1.0%) and then diluted to final concentrations using the buffers indicated in the text.
The activities of these enzymes in extracts of RBL-1 cells were assayed using the method of Jakschik and Lee, Nature, 287, 51-52 (1980). RBL--1 cells were obtained from the American Type Culture Collection (#CRL 1378) and were grown at 37° C. (5% CO2 in air) in spinner culture in MEM supplemented with 10% heat inactivated fetal calf serum. Harvested cells were washed with 50 mM sodium phosphate buffer, pH 7.0, containing 1 mM EDTA and 0.1% gelatin, resuspended in fresh buffer (5×10^7 cells/ml) and disrupted by nitrogen cavitation using the Parr bomb at 750 psi for 10 min. The broken cell extract was then centrifuged at 10,000×g for 20 minutes (min) and the supernatant centrifuge at 100,000×g for 60 min. Aliquots (0.25 mls) of the supernatant were preincubated with or without drugs for 10 min, after which 12 mM CaCl2 was added and the reaction was initiated with […] arachidonic acid-1-^14 C (final concentration was 25 μM; specific activity 20,000 dpm/nmole). After incubation for 5 min at 37° C., the reaction was terminated by addition of 2 volumes (0.5 ml) ice cold acetone and the sample was allowed to deproteinize on ice for 10 min prior to centrifugation at 1,000×g for 10 min. The deproteinized supernatant was adjusted to pH 3.5 with 2N formic acid and extracted with 2 volumes of ice cold ethyl acetate. The extracted samples were dried under argon, redissolved in ethyl acetate and applied to Whatman LK5D thin layer chromatography (TLC) plates which were developed using the A-9 solvent system [organic phase of ethyl acetate: 2,2,5-trimethylpentane:acetic acid:water (110:50:20:10)] described by Hamberg and Samuelsson, J. Biol. Chem., 241, 257-263 (1966). Arachidonic acid, 5-HETE, LTB4 and PGD2 were quantified with a Berthold LB 2832 autoscanner.
Under these conditions, only the 5-lipoxygenase pathway metabolites were detectable. The 5-HETE and di-HETEs were formed at a linear rate, and substantial amounts of the arachidonic acid-1-^14 C substrate were utilized.
Drug-induced effects on enzyme activities are described as the concentration of drug causing a 50% inhibition of metabolite synthesis (IC50).

[2] = tested on: Arachidonic Acid-Induced Mouse Ear Inflammation; assay: Arachidonic acid-induced mouse ear inflammation (ear swelling); format: in vivo, male Balb/c mice; parameters: key to % Inhibition of Ear Swelling: *: p < .05; **: p < .01; ***: p < .001; NS: not significant; conditions: p.o.
Protocol: In the following Examples male Balb/c mice (20-28 g) were used. All mice were obtained from Charles River Breeding Laboratories, Kingston, N.Y. Within a single experiment, mice were sex and age matched.
Compounds of Formula (I), indomethacin, naproxen, and ibuprofen were each used as the free base. The compounds were homogenized in 0.5% tragacanth. Compounds were administered by gavage at the indicated dose in a final volume of 10 ml/kg.
Arachidonic acid in acetone (2 mg/20 μl ) was applied to the inner surface of the left ear. The thickness of both ears was then measured with a dial micrometer one hour after treatment, and the data were expressed as the change in thickness (10^-3 cm) between treated and untreated ears.
Test compounds were given orally in 0.5% tragacanth at the times indicated in the text prior to the topical application of arachidonic acid.
Parenteral administration of compound was accomplished by subcutaneous injection of solution as indicated.

[3] = tested on: myocardial infarction; conditions: dogs; Mollane et al.; cited from earlier work
[4] = tested on: lipoxygenase; conditions: in vitro; cited from earlier work
[5] = tested on: psoriasis; conditions: Allen et al.; cited from earlier work
[6] = tested on: LTB4 and 5-HETE production; conditions: in vitro; Stenson et al.; cited from earlier work
[7] = tested on: rheumatoid arthritis; conditions: preliminary observation; Neumann et al.; cited from earlier work
[8] = 5HETE production by RBL1 high speed supernatant, read-out: 5-HETE IC50
[9] = LTB4 production by RBL1 high speed supernatant, read-out: LTB4 IC50

O=C(CSc1nc(-c2ccc(F)cc2)c(-c2ccncc2)[nH]1)CSc1nc(-c2ccc(F)cc2)c(-c2ccncc2)[nH]1 [Compound 2, 2-2'-[1,3-propan-2-onediylbis(thio)]bis[5-(4-pyridyl)-4-(4-fluorophenyl)-1H-imidazole]]
IC50 [1, 8]: 1700 nM
IC50 [1, 9]: 650 nM
% Inhibition of Ear Swelling ([2]; Table I, 2 mg arachidonic acid, thickness 1 h after treatment): NS

NC1=NN(c2cccc(C(F)(F)F)c2)CC1 [BW755-C]
area of infarction following coronary occlusion [3]: reduced
leukocyte infiltration into the ischaemic tissue [3]: inhibition of leukocyte infiltration into the ischaemic tissue

COc1ccc2cc([C@H](C)C(=O)O)ccc2c1 [naproxen]
antiinflammatory activity ([2]; 100 mg/kg): did not exhibit detectaole antiinflammatory activity

COc1ccc2c(c1)c(CC(=O)O)c(C)n2C(=O)c1ccc(Cl)cc1 [indomethacin]
antiinflammatory activity ([2]; 10 mg/kg): did not exhibit detectaole antiinflammatory activity

CC(C)Cc1ccc(C(C)C(=O)O)cc1 (stereo not shown) [ibuprofen]
antiinflammatory activity ([2]; 250 mg/kg): did not exhibit detectaole antiinflammatory activity

Fc1ccc(-c2nc(SCCSc3nc(-c4ccc(F)cc4)c(-c4ccc(F)cc4)[nH]3)[nH]c2-c2ccc(F)cc2)cc1 [Compound 1, 2,2'-[ethanediylbis(thio)]bis[4,5-bis(4-fluorophenyl)-1H-imidazole]]
IC50 [1, 8]: 18500 nM
IC50 [1, 9]: 3300 nM

CC(C(=O)O)c1ccc2oc(-c3ccc(Cl)cc3)nc2c1 (stereo not shown) [benoxaprofen]
lipoxygenase inhibitory activity [4]: in vitro lipoxygenase inhibitory activity
effect on psoriasis [5]: promising effect

O=C(CSc1nc(-c2ccc(F)cc2)c(-c2ccc(F)cc2)[nH]1)CSc1nc(-c2ccc(F)cc2)c(-c2ccc(F)cc2)[nH]1 [Compound 3, 2,2'-[1,3-propan-2-onediylbis(thio)]bis[4,5-bis-(4-fluorophenyl)-1H-imidazole]]
IC50 [1, 8]: 5300 nM
IC50 [1, 9]: 1600 nM

O=C(O)c1cc(/N=N/c2ccc(S(=O)(=O)Nc3ccccn3)cc2)ccc1O [Sulfasalazine]
inhibition of LTB4 and 5-HETE production [6]: inhibit LTB4 and 5-HETE production in vitro
efficacy in rheumatoid arthritic patients [7]: efficacy, including remission

Source: patent US4728656A, “2,2-alkyldiylbis(thio)bis(imidazoles) useful for inhibition of the 5-lipoxygenase pathway” (SmithKline Beckman Corporation, priority 1986, dated 1988)
